Test results from ChEMBL document CHEMBL1201862, “PubChem BioAssay data set” (2004).
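96-well plates; 48 h exposure; 5 concentrations. Endpoints by linear interpolation between flanking doses. Not reached: highest tested concentration assigned. Abbreviation: GI50, concentration required for 50% inhibition of growth.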 Activity calls are given as the source filed them. Cut-off read from the data, not from the text of the source: active = GI50 up to about 1.1 µM and inactive = higher.

Key:
Assay in all cases: NCI anticancer screen, dose series, 48 h
786-0 = system: 786-0
A549 = system: A549
ACHN = system: ACHN
CAKI-1 = system: CAKI-1
CCRF-CEM = system: CCRF-CEM
DU-145 = system: DU-145
HCT-116 = system: HCT-116
HOP-92 = system: HOP-92
IGROV-1 = system: IGROV-1
KM-20L2 = system: KM-20L2
M14 = system: M14
NCI-H522 = system: NCI-H522
RPMI-8226 = system: RPMI-8226
SF-268 = system: SF-268
SF-295 = system: SF-295
SK-MEL-5 = system: SK-MEL-5
SNB-75 = system: SNB-75
T47D = system: T47D
TK-10 = system: TK-10
UO-31 = system: UO-31

Measured: GI50

COC1/C=C/OC2(C)Oc3c(C)c(O)c4c(c3C2=O)C(=O)C=C(NC(=O)/C(C)=C\C=C\C(C)C(OC=O)C(C)C(O)C(C)C(OC(C)=O)C1C)C4=O (stereo not given)
inactive: 786-0 8.24 µM | A549 21 µM | ACHN 8.67 µM | CAKI-1 12 µM | CCRF-CEM 2.03 µM | DU-145 18.8 µM | HCT-116 4.82 µM | HOP-92 13.5 µM | IGROV-1 18.5 µM | KM-20L2 18.2 µM | M14 8.65 µM | NCI-H522 2.45 µM | RPMI-8226 5.22 µM | SF-268 17.7 µM | SF-295 23.3 µM | SK-MEL-5 15.8 µM | SNB-75 18.3 µM | T47D 3.65 µM | TK-10 16.6 µM | UO-31 16 µM
